# Test system: Hmex1906 primary human melanoma tumors
# Experiment: Hmex1906 primary human melanoma xenograft in nude mice, emergence of resistance under continuous vs intermittent dosing
# Type: in vivo
# Details: 5 mg/kg bid
# Protocol: Hmex1906 primary human melanoma tumors are implanted at passage 3 into nude mice. The mice were monitored until the implanted tumors reached 200-400 mm^3. Once this size is reached, the mice are dosed bid with 5 mg/kg of a Raf inhibitor (Compound of Formula II) for 4 weeks. Some of the mice continue treatment while others are subject to an intermittent treatment schedule of 4 weeks of treatment and 2 weeks of drug holiday.
smiles,measurement,setting,value
COC(=O)N[C@@H](C)CNc1nccc(-c2cn(C(C)C)nc2-c2cc(Cl)cc(NS(C)(=O)=O)c2F)n1 [Compound of Formula II],emergence of resistance to the BRAF inhibitor,"continuous dosing, nude mice with Hmex1906 tumors (200-400 mm^3 at start)",Resistance emerged in all mice
same,emergence of resistance to the BRAF inhibitor,"intermittent schedule: 4 weeks of treatment and 2 weeks of drug holiday, nude mice with Hmex1906 tumors, 5 mg/kg",no evidence of resistance
same,emergence of resistance to the BRAF inhibitor,"intermittent schedule: 4 weeks of treatment and 2 weeks of drug holiday, nude mice with Hmex1906 tumors, listed as BRAF inhibitor of formula II, 5 mg/kg",delays or prevents the onset of resistance

# Source: patent US11007194B2, “Method of treating a proliferative disease” (Array BioPharma Inc., priority 2011, dated 2021)
